This is an account of results in patent publication US5439940A, “Benz[e]indene derivatives” (priority 1992, dated 1995).

Series [1] relates to learned conditioned avoidance reflex. Kind of series: Antipsychotic effect: inhibition of conditioned avoidance reflex (shuttle box). In kind it is in vivo, rat (male Wistar). How it is done:
The antipsychotic (neuroleptic) effect was measured by the inhibition of the learned conditioned avoidance reflex. The male Wistar rats used for the study were of 120-150 g bodyweight at the commencement of learning. […] In response to a suitable warning stimulus, in order to avoid the punishing (unconditioned) stimulus, animals within the box passed through the gate from one part over the other. The warning, i.e. conditioned stimulus (CS), a white light (1 Hz) blinking for 15 seconds, was applied at the place of the actual animal existence. The unconditioned stimulus (US), in form of 0.6 mA intensity electric shock, was randomly applied to the paw during the last 5 seconds of the conditioned stimulus. Animal's movement during the CS and US from one part of the box over the other, was defined as avoidance and escape responses, respectively. Both responses ceased the actual stimulus and stopped the trial. The time elapsed until the next trial (intertrial interval, ITI) was 15 seconds. While one experiment was carried out daily, an experiment consisted of 80 trials. Learning efficiency was expressed as percentage of the successful to the total avoidances. […] Dosing was carried out once a week, one hour before the measurement in the shuttle box.

Another series relates to hexobarbital narcosis. The series can be described thus: Hexobarbital narcosis potentiating effect on mice. It counts as in vivo, mouse. How it is done:
The hexobarbital narcosis potentiating effect was examined on mice. Groups consisting of 6 animals were used for each dose. The animals were treated orally with the test compound, whereby sleeping was induced 1 hour later by administering a 40 mg/kg i.v. dose of hexobarbital both to the test and control groups. […] ED50 values were calculated from the thus-transformed data [Kaergaard Nielsen C. et al., Arch. Int. Pharmacodyn. 2, 170 (1967)].

Series [2] can be described thus: Acute toxicity on mice (oral LD50). The note with it: mouse, in vivo, 7 days observation, maximal dose 1000 mg/kg. How it is done: Mice belonging to the NMRI strain (body weight 20-25 g, both male and female) were used, 6 to 10 animals for each dose. The test compound was administered orally in a volume of 20 ml/kg. The applied maximal dose was 1000 mg/kg. […] The mice were kept in a plastic cage at room temperature. The animals got tap water and standard mouse fodder ad libitum. The toxicity data were determined by the aid of the method of Litchfield and Wilcoxon [Litchfield, J. T., Wilcoxon, F. W.: J. Pharmacol. Exp. Ther., 96, 99 (1949)].

In another series the test system is shocks tolerated. The series can be described thus: Anxiolytic effect (Vogel et al.). In kind it is in vivo, rat (male Wistar). Here is the method: The anxiolytic effect was tested by using the method of Vogel et al. Male Wistar rats of 160-180 g bodyweight were kept free of food and drinking water for 24 and 48 hours, respectively. Test and carrier substances were administered intraperitoneally two hours before testing. Animals within the experimental chamber were provided with drinking water through an inserted tube. After the animals' each twenty lapping for water the device emitted a 2 mA intensity electric shock through the drinking tube. During 5 minutes the shocks tolerated by the animals in order to quench their thirst were counted. The effect of treatment was expressed as the % increase of the tolerated shocks. The minimum effective dose (MED) was determined for each test compound [Voqel, J. R., Beer, B., Clody, D. E.: Psychopharmacologia (Berl.) 21, 1 (1971)].

Series [3] deals with carrageen-induced paw volume. The series can be described thus: Antiinflammatory effect (carrageen paw, Winter et al.). In kind it is in vivo, rat (Wistar). Conditions: po, read-out: Antiinflammatory effect ID30. Here is the method: The antiinflammatory effect was investigated on Wistar rats weighing 150-180 g according to the method of Winter et al. 0.1 ml of a 1 percent carrageen suspension was injected subcutaneously into the plantar region of one of the hind paws. The animals were fasted for 12 hours and received drinking water ad libitum. One hour before treatment with the test compound the rats were hydrated orally with 30 ml/kg of tap water. The test compounds and the vehicle were administered p.o. in a volume of 10 ml/kg, then 1 hour later carrageen was applied. The volume of the treated paw was measured by mercury-plethysmometer before and 3 hours after injection in such a way that displacement of the liquid arising from the volume alteration was indicated on a millimeter scale. […] A., Risley, E. A., Nuss, G. W.: Proc. Soc.

The test system of series [4] is acetic acid writhing reactions. Kind of series: Analgesic effect (acetic acid writhing, Newbould). It counts as in vivo, mouse (NMRI). Conditions: Mus musculus, 1 h, read-out: Analgesic effect ID50. Here is the method: The characteristic "writhing reactions" were counted for a period of 5 minutes, starting from the fifth minute after challenge. […] Each group of animals consisted of at least 10 mice. […]
A general note: Writhing tests count abdominal constrictions after an irritant is injected.

The subject of another series is catalepsy. The series can be described thus: Catalepsy. In kind it is in vivo, rat (Wistar). The note with it: rat. Here is the method: The extrapyramidal syndrome, the most important side effect limiting the application of the neuroleptic drugs in man, can be produced in experimental animals in the form of catalepsy. Our experiments in 150-160 g Wistar rats were performed according to Morpurgo. The catalepsy, appearing 60 minutes after dosing, was scored as follows. Both forelegs of each animal were put for 10 seconds onto a rubber stopper of 3 cm height, then for additional 10 seconds onto a same stopper of 9 cm height. […] The procedure was repeated in each 30 minutes during four hours, obtaining scores proportional to the degree of the catalepsy. Results were used to calculate the minimum effective dose [MED, the lowest dose resulting statistically significant alteration, c.f.: Morpurgo, C.: Arch. Int.

In series [5] the test system is experimental coronary insufficiency. The series can be described thus: Antianginal effect (glanduitrine-induced coronary insufficiency, Nieschultz). In kind it is in vivo, rat (male). Conditions: rat, glanduitrine 4 NE/kg i.v., T-wave; for inhibition in vivo at 2 mg/kg: Rat2, iv, read-out: Inhibition in a dose of 2 mg/kg. Here is the method: The test was carried out on male rats weighing 180-220 g. The animals were narcotized with the aid of chloralose-urethane. ECG was registered by means of needle electrodes in standard II output. Antianginal effect was tested according to the method of Nieschultz. Experimental coronary insufficiency was induced by administering glanduitrine (4 NE/kg i.v.).

For the next series, the system named is spontaneous motility. The series can be described thus: Spontaneous motility inhibiting activity (Dews equipment). In kind it is in vivo. The note with it: Mus musculus, 0.5 h; oral, beam interruptions within 30 minutes; read-out: Motility inhibiting activity ID50. Here is the method:
The spontaneous motility inhibiting activity was examined according to the method of Borsy et al. Groups consisting of 3 mice each were treated orally with different doses of the compounds to be tested, then the test animals were placed in a Dews equipment. In this equipment the number of interruptions of infrared beam within 30 minutes was counted. […] [Borsy, J., Csanyi, E., Lazar, I.: Arch. Int.. Pharmacodyn. 124, 1 (1960)].

A further series deals with nervus ischiadicus. Kind of series: Local analgesic effect (Truant d'Amato). In kind it is in vivo. The note with it: 0.2 ml injected around nervus ischiadicus. How it is done: The test was carried out according to the method of Truant d'Amato. 0.2 ml of test material was injected around the nervus ischiadicus in the middle of femur with a needle of 1 cm length. The criterion of analgesic effect was the lack of the motoric control of foot muscles. The duration of effect was registered and the 50 percentile effective concentration (EC50) was calculated on the basis of the dose-effect curve. Lidocain was used as reference substance Truant d'Amato, A. P., Wiedling, S.: Acta Chir. Scand., 116, 351 (1958)].

For the next series, the system named is nicotine spasm. The series can be described thus: Anticonvulsive activity: inhibition of nicotine spasm and lethality. In kind it is in vivo. Conditions: Mus musculus, 1 h; mice, oral, one hour before nicotine 1.4 mg/kg i.v. Here is the method: The inhibition of nicotine spasm and lethality was examined on mice according to the method of Stone. One hour after the oral treatment a dosage of 1.4 mg/kg of nicotine is injected intravenously, and the spasm developed as well as the lethality within 1 hour were recorded at both the test and control groups. [Stone, C. C., Mecklenburg, K. L., Torchiana, M. L.: Arch. Int. Pharmacodyn., 117, 419 (1958)].
The ED50 values were determined according to the method of Litchfield and Wilcoxon.

The mark [6] stands for this setting: rat, p.o., 1 hour before carrageen, paw volume 3 hours after.
Setting [7] is: mice, 0.75% acetic acid one hour after treatment.

The structures appear in SMILES notation. Like-named read-outs stand apart in the source and are kept apart here.

By LD50 is commonly meant the dose at which mortality reaches 50%. As for `OC(CNC1CC1)CON=C1CCc2c1ccc1ccccc21` (stereo not drawn) [Example 17, 3-[3-(Cyclopropylamino)-2-hydroxypropoxyimino]-2,3-dihydro-1H-benz[e]indene], the ED50 worked out at 26.3 mg/kg in series [1] (1 h, rat, dosing one hour before measurement, read-out: Conditioned reflex ID50); 11 mg/kg in the series on hexobarbital narcosis (Mus musculus, oral, 1 hour before hexobarbital 40 mg/kg i.v., sleeping time >2.5 times control, read-out: ED50 hexobarbital narcosis potentiation); 14 mg/kg in series [4] (setting [7]); 6 mg/kg in the series on spontaneous motility. In [1] (higher doses), the “character when administered in higher doses (in words)” value is recorded as “neuroleptic”. In addition, in [1] (rat), the “antipsychotic effect compared with reference substances (in words)” value was “superior to Thioridazine and inferior to Chlorpromazine”. Moreover, the “tranquillo-sedative activity rank (in words)” value with hexobarbital narcosis (compared within the structural group) is on record as “the most active member in the structural group”. In series [2], the LD50 at 168 h came out at 660 mg/kg. Moreover, the minimal effective dose in the series on shocks tolerated (ip, 2 h, rat, intraperitoneal, two hours before testing, read-out: Anxiolytic effect MED) was 0.1 mg/kg. Also, the “anxiolytic effect compared with Chlordiazepoxide and Meprobamate (in words)” value in the series on shocks tolerated (rat) is recorded as “superior to the reference substances by orders of magnitude”. Further, the “character in smaller doses (in words)” value in the series with shocks tolerated (smaller doses) is listed as “anxiolytic”. In series [3] (setting [6]), the ED30 is 40 mg/kg. In addition, the “Therapeutic index (Catalepsy MED / Conditioned Reflex ID50)” value with catalepsy is 3.8. Further, the “Catalepsy MED” value in the series with catalepsy (scored from 60 minutes after dosing, four hours) was 100 mg/kg. Besides, the inhibition in vivo at 2 mg/kg in series [5] came to 50%.

Turning to `CC(=O)Oc1ccccc1C(=O)O` [Acetylsalicylic acid, reference compound], the ED30 in series [3] (Rattus norvegicus, 3 h) came to 62 mg/kg. For the same compound, the ED50 in series [4] was 261 mg/kg.

With `CC(=O)Nc1ccc(O)cc1` [Paracetamol, reference compound], the ED30 in [3] (setting [6]) is 195 mg/kg. Besides, the ED50 in [4] (setting [7]) came to 421 mg/kg.

Take `CC(C)N(CCON=C1CCc2c1ccc1ccccc21)C(C)C` [Example 4, 3-[2-(N-1-Methylethyl-2-propylamino)-ethoxyimino]-2,3-dihydro-1H-benz[e]indene]: the LD50 at 168 h in [2] was found to be 600 mg/kg. Besides, the “Local analgesic effect EC50” value in the series on nervus ischiadicus is reported as 0.18%. For the same compound, the inhibition in vivo at 2 mg/kg in series [5] worked out at 100%. In addition, the values for the ED50 (in series [5] (iv); with nicotine spasm) were 0.19 mg/kg and 4 mg/kg, respectively.
